What is called EC50 is the concentration at which the effect is half-maximal. What is called IC50 is the concentration that gives 50% inhibition.

The values that follow come from PubChem BioAssay AID179 (DTP/NCI, 2004).

This assay deals with CEM cells HIV-1 protection, formazan growth assay. The assay can be described thus: NCI AIDS Antiviral Assay. The note with it: for IC50: measured here: growth of uninfected CEM cells. The procedure, abridged: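 Screen of anti-HIV-1 activity in human CEM cells using a formazan-based growth measurement at five drug concentrations. Hits with 50% or greater protection were repeated, and confirmation required reproducible complete protection.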

Active and inactive are the calls of the source.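 The calls were made as follows: active = compounds giving half or more protection of infected cells from virus-caused growth loss, again on retest; inactive = the rest.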 Where a SMILES comes first, the peptide text is derived from it. The star is where a group is joined. Boc = CC(C)(C)OC(=O)*; OBn = c1ccc(CO*)cc1

As to `C[C@@H](O)[C@H]1/C=C/C=C\C(=O)O[C@@H]2C[C@H]3O[C@@H]4[C@@H]5OC5(C)CCC4(COC(=O)[C@H]4O[C@]4(C)[C@@H](O)CO1)[C@]2(C)[C@]31CO1` (stereo partly drawn), the EC50 is above 0.2 µM and the IC50 is 0.0631 µM.
For `CC(=O)OC(C)(C)CCC(=O)[C@](C)(O)[C@H]1[C@H](O)C[C@@]2(C)[C@@H]3CCc4c(cc(OC5OC(CO)C(O)C(O)C5O)c(O)c4C)C3(C)C(=O)C[C@]12C` (stereo partly drawn) the same measures were above 200 µM and above 200 µM.
For `COC(=O)C1=C(C(=O)OC)C(N(C)C)C(C(=O)OC)=C(C(=O)OC)S1` the same measures were above 200 µM and above 200 µM.
For `O=Cc1ccc2c(c1-c1c(C=O)ccc3c1OCO3)OCO2` the same measures were above 170 µM and 79.4 µM.
As for `N#CC(C(=O)/C(=N\Nc1nc(=S)[nH]n1N)C(C#N)c1ccc(Cl)cc1)c1ccc(Cl)cc1` (stereo not drawn), the EC50 was above 53.7 µM and the IC50 is above 53.7 µM.
Consider `COc1ccc(-c2c(C#N)c(S)n(NS(=O)(=O)c3ccc(C)cc3)c(=O)c2C#N)cc1`, for which the EC50 was above 200 µM and the IC50 was found to be 9.33 µM.
On to `Cc1nc(Nc2nc3ccccc3[nH]2)[nH]c(=O)c1CCO`, for which the EC50 is above 200 µM and the half-maximal inhibitory concentration (IC50) was above 200 µM.
`CCC(C)C(NC(=O)C(N)CCCCN)C(=O)NC(CCC(=O)O)C(=O)NC(CO)C(=O)NC(C)C(=O)NC(C(=O)NC(CC(N)=O)C(=O)NC(CC(C)C)C(=O)NC(CO)C(=O)NC(CCC(N)=O)C(=O)O)C(C)O` (stereo not drawn) (H-KIESATNLSQ-OH; configuration not given here): the EC50 is above 57.5 µM and the IC50 was above 57.5 µM.
On to `O=C1c2ccccc2C(=O)c2c(/C=C\N3CCCCC3)ccnc21`, for which the EC50 is above 8.51 µM and the IC50 is above 8.51 µM.
As for `CSc1n[nH]c(NC(=O)c2cccc(C(F)(F)F)c2)n1`, the EC50 was above 44.7 µM and the concentration for half-maximal inhibition (IC50) is above 44.7 µM.
`COc1cc2c(cc1OC)C(=O)C(C1=C(SC(=N)N)C(=O)c3cc(OC)c(OC)cc31)C2` (stereo not drawn): the EC50 is above 28.2 µM and the IC50 was above 28.2 µM.
Regarding `Cc1ccc(C2SC(N)=Nc3c2c(C)nn3C(=O)c2ccccc2O)cc1` (stereo not drawn), the EC50 was above 20 µM and the concentration for half-maximal inhibition (IC50) is 0.603 µM.
On to `COC12C[C@H]3CCC([C@H](C)c4ccc5c(c41)CC1[C@H]5C[C@@H](O)C4C[C@@H](O)CC[C@@]41C)N2C3` (stereo partly drawn), for which the EC50 is above 40.7 µM and the half-inhibitory concentration (IC50) was above 40.7 µM.
Turning to `O=S(=O)(O)SCCCNCCCNCCCSS(=O)(=O)O`, the EC50 was above 200 µM and the concentration for half-maximal inhibition (IC50) is 13.8 µM.
For `O=C1c2ccccc2CC12Cc1ccccc1C2` the same measures were above 200 µM and 69.2 µM.
For `Cc1cc(S(=O)(=O)Nc2nnc3c4c(C)csc4ncn23)c(S)cc1Cl` the same measures were above 200 µM and 110 µM.
For `COC(=O)n1c(=O)n(-c2ccccc2)c(=O)n1C(=O)Nc1ccccc1` the same measures were above 200 µM and 195 µM.
Regarding `CC1=C(C(=O)CC(=O)C(=O)Nc2cccc(Cl)c2C)Sc2ccccc2N1`, the EC50 is above 64.6 µM and the IC50 was above 64.6 µM.
On to `O=c1c(O)c(-c2ccc(-c3oc4ccccc4c(=O)c3O)cc2)oc2ccccc12`, for which the EC50 was above 200 µM and the IC50 turned out to be 93.3 µM.
`C[C@@H](CN1CC(=O)NC(=O)C1)N1CC(=O)NC(=O)C1`: the EC50 was above 933 µM and the IC50 was found to be 91.2 µM.
For `Clc1ccc2sc(-n3ccc4ccccc43)nc2c1`, the EC50 was above 200 µM and the IC50 was found to be 170 µM.
As for `S=c1n(-c2ccc(Cl)cc2)c2nc3ccccc3nc(/c2=N\Nc2ccccc2)n1-c1ccccn1`, the EC50 is above 37.2 µM and the IC50 worked out at 29.5 µM.
For `C[CH2][Sn]1([CH2]C)[O]C(=O)[O][Sn]([CH2]C)([CH2]C)[O]1` the same measures were above 8.32 µM and 2.24 µM.
For `Cn1c(O)c(N=NC(=O)Cc2c[nH]c3ccccc23)c2ccccc21` the same measures were above 200 µM and above 200 µM.
Regarding `CCC1CN2CCc3cc(OC)c(OC)cc3C2CC1CC1c2cc(OC)c(OC)cc2CCN1C(=O)CNC(=O)OC(C)(C)C` (stereo not drawn), the outcome was inactive.
With `CCOC(=O)/C(=C\c1ccc(N(C)C)cc1)C(C)=O`, the EC50 is above 501 µM and the IC50 stood at 162 µM.
For `CCOC(=O)C(=Cc1ccc(C(=O)OC)cc1)C(=O)OCC` the same measures were above 85.1 µM and 12.6 µM.
Take `N#Cc1cc([N+](=O)[O-])ccc1NC(=O)C(=O)Nc1n[nH]c(N)n1`: the EC50 is above 794 µM and the IC50 stood at 692 µM.
For `C[C@H]1C=C2[C@@H]3CC(C)(C(=O)O)CC[C@]3(C)CC[C@]2(C)[C@]2(C)CC[C@H]3C(C)(C)[C@@H](OC(=O)c4cccc5c(=O)c6ccccc6[nH]c45)CC[C@]3(C)[C@@H]12` (stereo partly drawn) the same measures were above 100 µM and 35.5 µM.
For `CC(O)c1nc(C#N)c(N)o1` (stereo not drawn) the same measures were 3.31 µM and above 200 µM.
For `C/C(=N/NC(=S)N(Cc1ccccn1)Cc1ccccn1)c1cnccn1` the same measures were 0.2 µM and 0.339 µM.
For the compound `CC(=O)OC1CC(OC(C)=O)[C@@]2(C)C[C@@H]3C(C)C(=O)O[C@H]3CC(C)C12` (stereo partly drawn), the EC50 was above 74.1 µM and the IC50 turned out to be 42.7 µM.
Regarding `C/C(N=NS(=O)(=O)c1ccccc1)=C1\C=CC=CN1O`, the outcome was inactive.
For `CC(C)OC(=O)/C=C/C(=O)O/C=C/[N+](=O)[O-]`, the EC50 is above 200 µM and the IC50 was 105 µM.
For `CC1CCC2CC(=O)NC(=O)CC12` (stereo not drawn) the same measures were above 457 µM and above 457 µM.
For `COc1cc2c(cc1OC)C(C1C(=O)CC(C)(C)CC1=O)NCC2` (stereo not drawn), the outcome was inactive.
In the case of `O=C(/C=C/c1ccccc1)/C=C/c1ccccc1O`, the EC50 was above 145 µM and the IC50 stood at 61.7 µM.
For `CC1(C)COC(c2cccnc2/C=N/O)=N1` the same measures were above 1150 µM and above 200 µM.
`CC(=O)C(=Cc1cccc(C)c1)C(C)=O`: the EC50 was above 339 µM and the IC50 stood at 17.8 µM.
As for `CCCCN(CCCC)CC(C(=O)Nc1ccccc1)/C(C)=N\NC(=O)c1ccncc1` (stereo not drawn), the EC50 was above 51.3 µM and the IC50 was 30.2 µM.
`NC(N)NCCCc1cn2c(n1)C1CCCN1C(=O)C2Cc1ccccc1` (stereo not drawn): the EC50 is above 676 µM and the IC50 is above 676 µM.
Take `CN1C(CC(O)c2ccccc2)CCCC1CC(O)(c1ccccc1)c1ccccc1` (stereo not drawn): the EC50 was above 107 µM and the 50% inhibitory concentration (IC50) was determined as 22.9 µM.
For `NC(N)=NS(=O)(=O)c1ccc(NCCc2c3ccccc3nc3ccccc23)cc1` the same measures were above 200 µM and 66.1 µM.
For `Cc1cc(C)n2nc3c4ccsc4ncc3c2n1` the same measures were above 45.7 µM and above 45.7 µM.
For `CCOC(=O)/C=C(\C)NCCSSCCN/C(C)=C/C(=O)OCC` the same measures were above 200 µM and 50.1 µM.
As to `N#C/C(=C\c1ccc(O)c(O)c1)C(=O)NC1CCC(CC2CCC(NC(=O)/C(C#N)=C/c3ccc(O)c(O)c3)CC2)CC1` (stereo not drawn), the EC50 is above 200 µM and the IC50 came out at 1.07 µM.
Regarding `CCOC(=O)COc1ccc(OC)c2c1C(=O)CCC2`, the result was inactive.
For `CN1c2ccccc2C(=O)Nc2cnc(Cl)nc21`, the EC50 is above 200 µM and the IC50 was above 200 µM.
On to `NCCCOc1ccc(-c2c3nc(cc4ccc([nH]4)c(-c4ccc(OCCCN)cc4)c4nc(cc5ccc2[nH]5)C=C4)C=C3)cc1`, for which the EC50 was 2.4 µM and the half-inhibitory concentration (IC50) amounted to 3.31 µM.
For `CCOc1ccc(N=Nc2c(-c3ccccc3)nn(C(=O)CC(=O)Nc3cccc(C)c3)c2-c2ccccc2)cc1` the same measures were above 47.9 µM and above 47.9 µM.
For `OC1COC2CC(Nc3ccccn3)OC12` (stereo not drawn) the same measures were above 200 µM and above 200 µM.
Turning to `COc1ccc(C(=O)C(C(=O)CCC(=O)Nc2ccc(C)c(C)c2)c2ccc(OC)cc2)cc1` (stereo not drawn), the EC50 was above 21.9 µM and the IC50 was above 21.9 µM.
On to `CC(=O)CNC(=O)OC(C)(C)C`, for which the outcome was inactive.
With `C=CCCC1CCCCC/C1=N\N(C)C` (stereo not drawn), the EC50 is above 200 µM and the IC50 is above 200 µM.
For `CCCN(CCC)C(=S)N/N=C/c1cccc(C)n1`, the EC50 was above 200 µM and the IC50 came to 0.0631 µM.
As for `COc1cc2c3c(c1)[nH]c(=S)n3C(=O)C(C)S2` (stereo not drawn), the EC50 was above 200 µM and the IC50 worked out at 141 µM.
Regarding `COC(=O)/C(=N\NC(N)=O)C(C(=O)C(=O)Nc1ccccc1OC)c1nc2ccc([N+](=O)[O-])cc2[nH]c1=O` (stereo not drawn), the EC50 is above 479 µM and the IC50 is 229 µM.
For `CCOC(=O)CCC(NC(=O)c1ccc(Nc2nc3ccc(C(F)(F)F)cc3nc2-c2ccccc2)cc1)C(=O)OCC` (stereo not drawn) the same measures were above 200 µM and 141 µM.
For `Nc1nc(N)c(-c2cccc(C(F)(F)F)c2)c(Cc2cccc(C(F)(F)F)c2)n1` the same measures were above 20 µM and 0.759 µM.
Take `N#Cc1c(N)oc(-c2ccccc2)c1-c1ccccc1`: the outcome was inactive.
On to `CC1CCCCN1CC(=O)c1ccc2c(c1)Sc1ccccc1O2` (stereo not drawn), for which the EC50 is above 200 µM and the IC50 came out at 8.13 µM.
For `CCOC(=O)CCNC(=O)c1ccccc1SC(=O)CCCC[n+]1ccccc1` the same measures were above 2 µM and 1.51 µM.
For `CCCCc1ccc(Nc2ncc3ncn(COCCO)c3n2)cc1` the same measures were above 200 µM and 51.3 µM.
Regarding `Cc1c(C(=O)O)n(C)c(=O)n(C)c1=O`, the result was inactive.
Same read-out and setting: in the case of `O=C1C2CCN(CC2)C1Cn1cnc2c(Cl)ncnc21` (stereo not drawn) it was “inactive”; in that of `Cc1ccc(-c2c(N)nc(NC#N)nc2CCC(=O)Nc2ccccc2[N+](=O)[O-])cc1`, “inactive”.
As for `CC(C)C(NC(=O)CNC(=O)C1CCCN1C(=O)C(NC(=O)OC(C)(C)C)C(C)C)C(=O)NCC(=O)OCc1ccccc1` (stereo not drawn) (Boc-VPGVG-OBn; configuration not given here), the EC50 is above 200 µM and the IC50 was 117 µM.
`Cc1noc2cccc(O)c12`: the result was inactive.
Take `Cc1ccc([S@](=O)c2occc2C=O)cc1`: the EC50 is above 20 µM and the IC50 was determined as 1.82 µM.
